ChEMBL document CHEMBL4392852, “Synthesis and characterization of hydrogen peroxide activated estrogen receptor beta ligands” (Bioorg Med Chem, 2019)

How the values were obtained:
[1] = Drug metabolism in pH 7.4 PBS assessed as formation of DPN at 150 uM at 37 degC incubated for 1 hr in presence of 5 fold excess H2O2 by HPLC analysis
[2] = Drug metabolism in pH 7.4 PBS assessed as H2O2-mediated formation of DPN at 75 uM at 37 degC incubated for 10 mins by UV spectroscopy
[3] = Drug metabolism in pH 7.4 PBS assessed as formation of DPN at 150 uM at 37 degC incubated for 1 hr in presence of 5 fold excess hypochlorite by HPLC analysis relative to untreated control
[4] = Drug metabolism in pH 7.4 PBS in absence of H2O2 at 75 uM incubated at 37 degC for 4 hrs by UV spectroscopy
[5] = Drug metabolism in pH 7.4 PBS assessed as formation of DPN at 150 uM at 37 degC incubated for 1 hr in presence of 5 fold excess hydroxyl radical by HPLC analysis
[6] = Drug metabolism in pH 7.4 PBS assessed as second order rate constant for H2O2-mediated formation of DPN at 75 uM at 37 degC incubated for over 4 hrs by UV spectroscopy
[7] = Drug metabolism in pH 7.4 PBS assessed as formation of DPN at 150 uM at 37 degC incubated for 1 hr in presence of 5 fold excess nitric oxide by HPLC analysis
[8] = Retention time of the compound at 150 uM by HPLC analysis; type: physicochemical
[9] = molecular target: T1, Estrogen receptor (Homo sapiens) (UniProt P03372); experiment: Ratio of RBA for DPN to RBA for test compound for displacement of fluormone tracer from full length human recombinant ERalpha relative to estradiol
T1 sequence (whole entry): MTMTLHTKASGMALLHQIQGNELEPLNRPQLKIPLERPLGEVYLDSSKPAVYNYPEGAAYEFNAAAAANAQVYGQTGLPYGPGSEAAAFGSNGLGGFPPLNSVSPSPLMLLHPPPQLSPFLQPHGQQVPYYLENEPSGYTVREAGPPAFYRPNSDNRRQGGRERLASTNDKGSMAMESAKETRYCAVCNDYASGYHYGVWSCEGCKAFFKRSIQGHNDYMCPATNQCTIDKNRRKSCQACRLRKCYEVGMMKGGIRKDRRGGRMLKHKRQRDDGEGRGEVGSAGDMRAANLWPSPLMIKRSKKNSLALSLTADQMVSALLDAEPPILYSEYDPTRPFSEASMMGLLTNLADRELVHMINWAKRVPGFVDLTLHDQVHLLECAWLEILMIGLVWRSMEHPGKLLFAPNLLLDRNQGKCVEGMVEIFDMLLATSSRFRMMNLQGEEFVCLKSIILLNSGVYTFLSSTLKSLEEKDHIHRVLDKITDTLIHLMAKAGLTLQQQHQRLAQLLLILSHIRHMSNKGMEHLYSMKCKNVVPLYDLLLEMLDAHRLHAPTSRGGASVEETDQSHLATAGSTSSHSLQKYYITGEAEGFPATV

[10] = Drug metabolism in pH 7.4 PBS assessed as formation of DPN at 150 uM at 37 degC incubated for 1 hr in presence of 5 fold excess TBHP by HPLC analysis
[11] = molecular target: T2, Estrogen receptor beta (Homo sapiens, UniProt Q92731); experiment: Ratio of RBA for DPN to RBA for test compound for displacement of fluormone tracer from full length human recombinant ERbeta relative to estradiol
T2 sequence (Q92731 whole entry): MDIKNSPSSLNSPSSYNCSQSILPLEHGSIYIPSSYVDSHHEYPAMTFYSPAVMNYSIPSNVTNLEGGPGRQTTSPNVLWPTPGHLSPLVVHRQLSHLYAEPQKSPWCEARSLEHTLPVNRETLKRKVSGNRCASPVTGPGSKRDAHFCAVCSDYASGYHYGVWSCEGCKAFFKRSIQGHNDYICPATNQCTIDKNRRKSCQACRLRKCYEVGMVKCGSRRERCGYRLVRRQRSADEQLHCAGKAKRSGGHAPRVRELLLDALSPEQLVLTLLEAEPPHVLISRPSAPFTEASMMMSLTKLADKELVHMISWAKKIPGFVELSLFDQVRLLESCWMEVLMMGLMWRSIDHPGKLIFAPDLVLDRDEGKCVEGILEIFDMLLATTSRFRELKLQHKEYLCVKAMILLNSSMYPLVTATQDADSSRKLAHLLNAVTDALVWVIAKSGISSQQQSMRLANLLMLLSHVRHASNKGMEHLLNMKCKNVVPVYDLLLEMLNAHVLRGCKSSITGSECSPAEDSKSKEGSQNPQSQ

[12] = Drug metabolism in pH 7.4 PBS assessed as formation of DPN at 150 uM at 37 degC incubated for 1 hr in presence of 5 fold excess superoxide by HPLC analysis relative to untreated control
[13] = molecular target: T2, Estrogen receptor beta; experiment: Activation of human ERbeta assessed as induction of transcriptional activation incubated for 24 hrs by luciferase reporter gene assay
[14] = molecular target: T2, Estrogen receptor beta; experiment: Activation of human ERbeta assessed as induction of transcriptional activation incubated for 24 hrs in presence of 50 uM H2O2 by luciferase reporter gene assay
[15] = molecular target: T2, Estrogen receptor beta; experiment: Activation of human ERbeta assessed as induction of transcriptional activation incubated for 24 hrs in presence of 100 uM H2O2 by luciferase reporter gene assay
[16] = molecular target: T2, Estrogen receptor beta; experiment: Ratio of RBA for Estrone to RBA for test compound for displacement of fluormone tracer from full length human recombinant ERbeta relative to estradiol
[17] = molecular target: T1, Estrogen receptor (Homo sapiens); experiment: Ratio of RBA for Estrone to RBA for test compound for displacement of fluormone tracer from full length human recombinant ERalpha relative to estradiol
[18] = Drug metabolism in pH 7.4 PBS assessed as H2O2-mediated conversion to E1 by measuring second order rate constant incubated at 75 uM at 37 degC for 4 hrs by UV spectroscopy
[19] = Drug metabolism in pH 7.4 PBS assessed as H2O2-mediated conversion to E2 incubated at 500 uM at 37 degC for 30 mins by GC-MS analysis
[20] = molecular target: T2, Estrogen receptor beta; experiment: Ratio of RBA for estradiol RBA for test compound for displacement of fluormone tracer from full length human recombinant ERbeta relative to estradiol
[21] = Drug metabolism in pH 7.4 PBS assessed as H2O2-mediated conversion to phenol by measuring second order rate constant for disappearance of starting material at 75 uM incubated at 37 degC for 4 hrs by UV spectroscopy
[22] = Drug metabolism in pH 7.4 PBS assessed as H2O2-mediated conversion to E2 by measuring retention time of product at 500 uM incubated at 37 degC for 30 mins by GC-MS analysis; type: physicochemical; conditions: buffer, pH 7.4, 0.5 h
[23] = molecular target: T1, Estrogen receptor (Homo sapiens); experiment: Ratio of RBA for estradiol RBA for test compound for displacement of fluormone tracer from full length human recombinant ERalpha relative to estradiol

CC1(C)OB(c2ccc(CC(C#N)c3ccc(O)cc3)cc2)OC1(C)C (centres undefined)
Drug metabolism [1]: Metabolite detected | Drug metabolism [2]: Metabolite detected | Drug metabolism [3]: 50 to 80% | Drug metabolism [4]: Metabolite not detected | Drug metabolism [5]: Metabolite not detected | K [6]: 6.46 M⁻¹ s⁻¹ | Drug metabolism [7]: Metabolite not detected | Retention_time [8]: 22 min | Ratio [9]: 4.5 | Drug metabolism [10]: Metabolite not detected | Ratio [11]: 5 | Drug metabolism [12]: 22%

N#CC(Cc1ccc(O)cc1)c1ccc(O)cc1 (centres undefined) [DIARYLPROPIONITRILE]
Retention_time [8]: 19 min

CC1(C)OB(c2ccc(CC(C#N)c3ccc(B4OC(C)(C)C(C)(C)O4)cc3)cc2)OC1(C)C (centres undefined)
Drug metabolism [1]: Metabolite detected | EC50 [13]: 470 nM | Drug metabolism [2]: Metabolite detected | Drug metabolism [3]: 50 to 80% | Drug metabolism [4]: Metabolite not detected | Drug metabolism [5]: Metabolite not detected | EC50 [14]: 6.1 nM | K [6]: 5.14 M⁻¹ s⁻¹ | Drug metabolism [7]: Metabolite not detected | Retention_time [8]: 28 min | Drug metabolism [10]: Metabolite not detected | Ratio [11]: 20 | Drug metabolism [12]: 22% | EC50 [15]: 1.2 nM

CC1(C)OB(c2ccc(C(C#N)Cc3ccc(O)cc3)cc2)OC1(C)C (centres undefined)
Drug metabolism [1]: Metabolite detected | Drug metabolism [2]: Metabolite detected | Drug metabolism [3]: 50 to 80% | Drug metabolism [4]: Metabolite not detected | Drug metabolism [5]: Metabolite not detected | K [6]: 5.92 M⁻¹ s⁻¹ | Drug metabolism [7]: Metabolite not detected | Retention_time [8]: 23 min | Ratio [9]: 6 | Drug metabolism [10]: Metabolite not detected | Ratio [11]: 5 | Drug metabolism [12]: 22%

CC1(C)OB(c2ccc3c(c2)CC[C@@H]2[C@@H]3CC[C@]3(C)C(=O)CC[C@@H]23)OC1(C)C
Ratio [16]: 6 | Ratio [17]: 6 | Drug metabolism [4]: Metabolite not detected | K [18]: 4.81 M⁻¹ s⁻¹

CC1(C)OB(c2ccc3c(c2)CC[C@@H]2[C@@H]3CC[C@]3(C)[C@@H](O)CC[C@@H]23)OC1(C)C
Drug metabolism [19]: Metabolite detected | Drug metabolism [4]: Metabolite not detected | Ratio [20]: 3 | K [21]: 5.57 M⁻¹ s⁻¹ | Retention_time [22]: 12.5 min | Ratio [23]: 3
